Test results published in the NIST ThermoML archive (doi:10.1021/je400858t).
Numbers after ± are expanded uncertainties.

Tests used:
[1] = for mass density / thermal conductivity / viscosity: 101.33 kPa, Liquid; for mass density: Vibrating tube method; for thermal conductivity: Parallel plate method; for viscosity: Cone and plate viscometry; for Glass transition temperature: DTA
[2] = molar heat capacity at constant pressure; conditions: 101.33 kPa, Liquid, Small sample (50 mg) DSC

SMILES	thermal conductivity ([1]; 300 K)	thermal conductivity ([1]; 375 K)	viscosity ([1]; 283 K)	viscosity ([1]; 293 K)	viscosity ([1]; 298 K)	viscosity ([1]; 303 K)	viscosity ([1]; 313 K)	viscosity ([1]; 323 K)	viscosity ([1]; 333 K)	viscosity ([1]; 343 K)	Glass transition temperature [1]	also measured
CCCCCC[n+]1ccn(C)c1.O=S(=O)([N-]S(=O)(=O)C(F)(F)F)C(F)(F)F	0.12 ± 0.01 W/m/K	0.12 ± 0.01 W/m/K										mass density ([1]; 283 K): 1385.63 ± 4.2 kg/m3; mass density ([1]; 293 K): 1376.5 ± 4.2 kg/m3; mass density ([1]; 303 K): 1367.38 ± 4.1 kg/m3; mass density ([1]; 313 K): 1358.3 ± 4.1 kg/m3; mass density ([1]; 323 K): 1349.27 ± 4.1 kg/m3; mass density ([1]; 333 K): 1340.34 ± 4 kg/m3; mass density ([1]; 343 K): 1331.41 ± 4 kg/m3; mass density ([1]; 353 K): 1322.54 ± 4 kg/m3; mass density ([1]; 363 K): 1313.73 ± 4 kg/m3
CCOP(=O)([O-])OCC.CCn1cc[n+](C)c1 [1-ethyl-3-methylimidazolium diethyl phosphate]	0.19 ± 0.02 W/m/K	0.19 ± 0.02 W/m/K	1280 ± 150 mPa·s	580 ± 65 mPa·s	410 ± 44 mPa·s	300 ± 30 mPa·s	168 ± 17 mPa·s	101 ± 10 mPa·s	66 ± 7 mPa·s	45 ± 5 mPa·s	-66 ± 2 °C	molar heat capacity at constant pressure ([2]; 298 K): 459.81 ± 47 J/K/mol; molar heat capacity at constant pressure ([2]; 303 K): 465.1 ± 47 J/K/mol; molar heat capacity at constant pressure ([2]; 308 K): 467.74 ± 47 J/K/mol; molar heat capacity at constant pressure ([2]; 313 K): 470.38 ± 48 J/K/mol; molar heat capacity at constant pressure ([2]; 318 K): 475.67 ± 48 J/K/mol; molar heat capacity at constant pressure ([2]; 323 K): 478.31 ± 48 J/K/mol; molar heat capacity at constant pressure ([2]; 328 K): 480.95 ± 49 J/K/mol; molar heat capacity at constant pressure ([2]; 333 K): 486.24 ± 49 J/K/mol; molar heat capacity at constant pressure ([2]; 338 K): 488.88 ± 49 J/K/mol; molar heat capacity at constant pressure ([2]; 343 K): 494.16 ± 50 J/K/mol
CCn1cc[n+](C)c1.CS(=O)(=O)[O-] [1-ethyl-3-methylimidazolium methanesulfonate]	0.21 ± 0.02 W/m/K	0.21 ± 0.02 W/m/K	450 ± 49 mPa·s	210 ± 22 mPa·s	155 ± 16 mPa·s	117 ± 12 mPa·s	70 ± 7 mPa·s	45 ± 5 mPa·s	31 ± 3 mPa·s	23 ± 2 mPa·s	-62 ± 2 °C	
CCn1cc[n+](C)c1.N#C[S-] [1-ethyl-3-methylimidazolium thiocyanate]	0.21 ± 0.02 W/m/K	0.21 ± 0.02 W/m/K									-94 ± 2 °C	
CCn1cc[n+](C)c1.O=C([O-])C(F)(F)F [1-ethyl-3-methylimidazolium trifluoroacetate]	0.17 ± 0.01 W/m/K	0.17 ± 0.01 W/m/K										
CCn1cc[n+](C)c1.O=S(=O)([O-])C(F)(F)F [1-ethyl-3-methylimidazolium trifluoromethanesulfonate]	0.16 ± 0.01 W/m/K	0.16 ± 0.01 W/m/K										
